What was measured:
BRD4 (BDI-BDII_K57-K550) = BRD4 (BDI-BDII_K57-K550) (Homo sapiens, UniProt O60885); assay: TR-FRET bromodomain binding assay; conditions: His-tagged tandem bromodomain, Alexa647-labeled probe; Ki calculated from IC50s, probe Kd and probe concentration
Procedure: A time-resolved fluorescence resonance energy transfer (TR-FRET) assay was used to determine the affinities of compounds of the Examples listed in Table 1 for the tandem domain of bromodomain BRD4. […] An Alexa647-labeled BET-inhibitor was used as the fluorescent probe in the assay.
TR-FRET data were normalized to the means of 24 no-compound controls (“high”) and 8 controls containing 1 μM un-labeled probe (“low”). Percent inhibition was plotted as a function of compound concentration and the data were fit with the 4 parameter logistic equation to obtain IC50s. Inhibition constants (Ki) were calculated from the IC50s, probe Kd and probe concentration. Typical Z′ values were between 0.65 and 0.75.

[1] = system: breast cancer cell line MX-1; assay: MX-1 cell line proliferation assay (3-day, Cell Titer Glo); assay type: cell-based; conditions: Homo sapiens, MX1, MX-1 cells, 72 hours, read-out: Cellular proliferation: EC50
Procedure: The impact of compounds of the Examples on cancer cell proliferation was determined using the breast cancer cell line MX-1 (ATCC) in a 3-day proliferation assay and the data are reported in Table 1. […] For compound testing, MX-1 cells were plated in 96-well black bottom plates at a density of 5000 cells/well in 90 μL of culture media and incubated at 37° overnight to allow cell adhesion and spreading. Compound dilution series were prepared in DMSO via a 3-fold serial dilution from 3 mM to 0.1 μM. The DMSO dilution series were then diluted 1:100 in phosphate buffered saline, and 10 μL of the resulted solution were added to the appropriate wells of the MX-1 cell plate. The final compound concentrations in the wells were 3, 1, 0.3, 0.1, 0.03, 0.01, 0.003, 0.001, 0.0003, and 0.0001 μM, or 1, 0.3, 0.1, 0.03, 0.01, 0.003, 0.001, 0.0003, 0.0001, and 0.00003 μM.
Luminescence readings from the Cell Titer Glo assay were normalized to the DMSO treated cells and analyzed using the GraphPad Prism software with sigmoidal curve fitting to obtain EC50s.

Compound	Ki (BRD4 (BDI-BDII_K57-K550))	EC50 [1]
CCS(=O)(=O)Nc1ccc2c(c1)-c1cn(C)c(=O)cc1OCC/C=C/Cc1cc(Cl)ccc1O2 [Example A-15, (E)-N-(12-chloro-2-methyl-3-oxo-3,6,7,10-tetrahydro-2H-dibenzo[4,5:7,8][1,6]dioxacyclotridecino[3,2-c]pyridin-18-yl)ethanesulfonamide]	3.06 nM	42.4 nM
Cn1cc2c(cc1=O)OCCCCc1cc(Cl)ccc1Oc1ncc(CO)cc1-2 [Example A-39, 11-chloro-17-(hydroxymethyl)-2-methyl-6,7,8,9-tetrahydrobenzo[11,12][1,6]dioxacyclododecino[2,3-b:4,5-c′]dipyridin-3(2H)-one]	15.7 nM	173 nM
CCS(=O)(=O)Nc1ccc2c(c1)-c1nn(C)c(=O)cc1OCCCCc1cc(Cl)ccc1O2 [Example A-55, N-(11-chloro-2-methyl-3-oxo-2,3,6,7,8,9-hexahydrodibenzo[4,5:7,8][1,6]dioxacyclododecino[3,2-c]pyridazin-17-yl)ethanesulfonamide]	2.91 nM	14.2 nM
CCS(=O)(=O)Nc1ccc2c(c1)-c1cn(C)c(=O)cc1OCC/C=C/c1cc(Cl)ccc1O2 [Example A-18, (E)-N-(11-chloro-2-methyl-3-oxo-2,3,6,7-tetrahydrodibenzo[4,5:7,8][1,6]dioxacyclododecino[3,2-c]pyridin-17-yl)ethanesulfonamide]	4.06 nM	8.87 nM
CCS(=O)(=O)Nc1ccc2c(c1)-c1cn(C)c(=O)cc1OCCN(S(=O)(=O)NC(C)=O)Cc1cc(Cl)ccc1O2 [Example B-16, N-({11-chloro-17-[(ethylsulfonyl)amino]-2-methyl-3-oxo-2,3,6,7-tetrahydrodibenzo[f,i]pyrido[3,4-k][1,8,4]dioxazacyclododecin-8(9H)-yl}sulfonyl)acetamide]	1.28 nM	> 1000 nM
CCS(=O)(=O)Nc1ccc2c(c1)-c1cn(C)c(=O)cc1OCCCCc1cc(OC(F)(F)F)ccc1O2 [Example A-37, N-[2-methyl-3-oxo-11-(trifluoromethoxy)-2,3,6,7,8,9-hexahydrodibenzo[4,5:7,8][1,6]dioxacyclododecino[3,2-c]pyridin-17-yl]ethanesulfonamide]	0.87 nM	6.12 nM

The next lines start with the values.

Ki (BRD4 (BDI-BDII_K57-K550))	EC50 [1]	Compound
0.74 nM	3.97 nM	CCS(=O)(=O)Nc1ccc2c(c1)-c1cn(C)c(=O)cc1OCCCCc1cc(C(F)(F)F)ccc1O2 [Example A-29, N-[2-methyl-3-oxo-11-(trifluoromethyl)-2,3,6,7,8,9-hexahydrodibenzo[4,5:7,8][1,6]dioxacyclododecino[3,2-c]pyridin-17-yl]ethanesulfonamide]
0.88 nM	5.71 nM	Cn1cc2c(cc1=O)OCCCCc1cc(F)cc(F)c1Oc1ccc(S(=O)(=O)C3CC3)cc1-2 [Example A-21, 17-(cyclopropylsulfonyl)-11,13-difluoro-2-methyl-6,7,8,9-tetrahydrodibenzo[4,5:7,8][1,6]dioxacyclododecino[3,2-c]pyridin-3(2H)-one]
0.86 nM	10.2 nM	CCS(=O)(=O)c1ccc2c(c1)-c1cn(C)c(=O)cc1OCCCCc1ccncc1O2 [Example A-42, 17-(ethylsulfonyl)-2-methyl-6,7,8,9-tetrahydrobenzo[4,5][1,6]dioxacyclododecino[3,2-c:7,8-c′]dipyridin-3(2H)-one]
3.68 nM	24.4 nM	Cn1cc2c(cc1=O)OCCCCc1cc(C#N)ccc1Oc1ccc(NS(C)(=O)=O)cc1-2 [Example A-47, N-(11-cyano-2-methyl-3-oxo-2,3,6,7,8,9-hexahydrodibenzo[4,5:7,8][1,6]dioxacyclododecino[3,2-c]pyridin-17-yl)methanesulfonamide]
1.15 nM	8.77 nM	Cn1cc2c(cc1=O)OCCCCc1cc(OC(F)(F)F)ccc1Oc1ccc(NS(C)(=O)=O)cc1-2 [Example A-30, N-[2-methyl-3-oxo-11-(trifluoromethoxy)-2,3,6,7,8,9-hexahydrodibenzo[4,5:7,8][1,6]dioxacyclododecino[3,2-c]pyridin-17-yl]methanesulfonamide]

Source: US9994581B2, “Bromodomain inhibitors” (AbbVie Inc., priority 2013, dated 2018)
